Experimental data from patent US12208108B2, “Drug targets of delayed aging and human brain diseases” (Texas Tech University System, priority 2016, dated 2025).

Legend:
[1] = test system: SHSY5Y cells; experiment: Immunoblotting analysis of mitochondrial, synaptic proteins and Aβ; assay type: cell-based, Human
From the text: Immunoblotting analysis. To determine the effects of Aβ on mitochondrial proteins and the useful effects of DDQ at the protein level, the inventors quantified mitochondrial proteins in five independent treatments of cells with Aβ, DDQ, Aβ+DDQ and DDQ+Aβ.
DDQ reduces Aβ and Drp1 levels. To determine whether DDQ reduces Aβ and Drp1 levels, the inventors conducted immunoblotting analysis, in cells treated with DDQ, Aβ+DDQ and DDQ+Aβ.
FIG. 3 illustrates the experimental strategy of the cell culture work and including treatments. The cells were grown in a medium (1:1 DMEM and F12, 10% FBS, lx penicillin, and streptomycin) at 37° C. in a humified incubator with a 5% CO2 environment. After seeding were allowed to grow for 24-48 hrs or until 80% confluence in six-well plates and used for experiments. The inventors used five different groups of cells—(1) untreated SHSY5Y cells; (2) SHSY5Y cells treated with DDQ (250 nM final concentration) for 24 hrs; (3) SHSY5Y cells incubated with Aβ peptide 1-42 (20 uM final concentration) for 6 hrs; (4) SHSY5Y cells treated Aβ for 6 hrs+DDQ for 24 hrs and (5) SHSY5Y cells treated DDQ for 24 hrs and Aβ for 6 hrs. Half a million SHSY5Y cells were suspended per well into six-well plates. The inventors used Aβ peptide 1-42 and DDQ 250 nM in the experiments. After treatments, the inventors harvested cells, conducted experiments to measure the levels mRNA using Sybr-Green based real-time RT-PCR, proteins using immunoblotting and immunofluorescence analysis and cell viability using MTT assay. The inventors counted the number of mitochondria by electron microscopy.

[2] = target: T1, GTPase-Drp1 (Homo sapiens, UniProt O00429); experiment: GTPase-Drp1 activity from Drp1 IP elutes; assay type: cell-based
T1 construct: endogenous in cells; host or cells: SHSY5Y human neuroblastoma cells
Protocol: GTPase-Drp1 activity: To determine whether Aβ affects GTPase-Drp1 activity in cells that treated with Aβ incubation, the inventors measured GTPase-Drp1 activity from Drp1 IP elutes of all cell treatments.

[3] = Aβ + DDQ (Aβ1-42 20 μM 6 hrs, then DDQ 24 hrs) vs untreated cells
[4] = Aβ + DDQ (Aβ1-42 6 hrs, then DDQ 24 hrs) vs Aβ treated cells
[5] = DDQ 250 nM 24 hrs vs untreated cells
[6] = DDQ + Aβ (DDQ 24 hrs, then Aβ1-42 6 hrs) vs Aβ treated cells

T1 sequence (O00429 whole entry): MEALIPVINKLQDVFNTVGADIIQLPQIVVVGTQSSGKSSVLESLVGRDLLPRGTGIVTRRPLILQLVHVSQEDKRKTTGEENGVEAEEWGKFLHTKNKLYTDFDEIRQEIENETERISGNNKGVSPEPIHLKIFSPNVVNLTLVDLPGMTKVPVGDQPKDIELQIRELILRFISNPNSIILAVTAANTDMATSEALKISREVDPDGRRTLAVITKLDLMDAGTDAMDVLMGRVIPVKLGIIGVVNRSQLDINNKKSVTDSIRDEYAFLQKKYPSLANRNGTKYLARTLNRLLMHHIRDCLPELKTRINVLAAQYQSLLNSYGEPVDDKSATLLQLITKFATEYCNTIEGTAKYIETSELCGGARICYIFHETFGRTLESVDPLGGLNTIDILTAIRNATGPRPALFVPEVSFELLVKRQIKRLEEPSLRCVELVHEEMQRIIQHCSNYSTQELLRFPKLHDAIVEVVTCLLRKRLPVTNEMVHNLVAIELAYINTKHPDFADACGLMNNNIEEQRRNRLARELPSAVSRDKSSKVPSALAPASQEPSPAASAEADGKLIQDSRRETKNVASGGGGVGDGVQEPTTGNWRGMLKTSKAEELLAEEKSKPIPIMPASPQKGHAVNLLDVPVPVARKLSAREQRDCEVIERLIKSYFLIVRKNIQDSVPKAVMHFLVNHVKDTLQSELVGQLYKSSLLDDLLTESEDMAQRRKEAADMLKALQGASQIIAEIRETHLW

CCOP(=O)(OCC)C(NCCc1ccc(O)c(O)c1)c1ccnc2ccccc12 (stereo not drawn) [DDQ, diethyl(3,4-dihydroxyphenethylamine)(quinolin-4-yl)methylphosphonate]
Drp1 protein level [1, 3]: reduced
Fis1 protein level [1, 3]: reduced
Mfn1 protein level [1, 3]: significantly increased
PSD95 protein level [1, 3]: significantly increased
synaptophysin protein level [1, 3]: significantly increased
Drp1 protein level [1, 4]: significantly reduced levels
Mfn1 protein level [1, 4]: increased
Mfn2 protein level [1, 4]: increased
Nrf1 protein level [1, 4]: increased
Nrf2 protein level [1, 4]: increased
PSD95 protein level [1, 4]: increased
TFAM protein level [1, 4]: increased
synaptophysin protein level [1, 4]: increased
4 kDa Aβ levels ([1]; Aβ + DDQ (Aβ1-42 6 hrs, then DDQ 24 hrs) vs cells treated with Aβ alone): reduced levels
Drp1 protein level [1, 5]: significantly reduced
Fis1 protein level [1, 5]: significantly reduced
Mfn2 protein level [1, 5]: significantly increased
Mitochondrial biogenesis protein levels [1, 5]: significantly increased
Drp1 protein level [1, 6]: significantly reduced levels
Fis1 protein level [1, 6]: significantly reduced levels
Mfn1 protein level [1, 6]: increased
Mfn2 protein level [1, 6]: increased
Nrf1 protein level [1, 6]: significantly increased levels
Nrf2 protein level [1, 6]: significantly increased levels
PSD95 protein level [1, 6]: increased
TFAM protein level [1, 6]: significantly increased levels
synaptophysin protein level [1, 6]: increased
4 kDa Aβ levels ([1]; DDQ + Aβ (DDQ 24 hrs, then Aβ1-42 6 hrs) vs cells treated with Aβ alone): reduced levels
Drp1 protein level ([1]; DDQ + Aβ (DDQ 24 hrs, then Aβ1-42 6 hrs) vs untreated cells): Decreased levels
GTPase-Drp1 activity [2, 3]: Significantly increased
GTPase-Drp1 activity ([2]; Aβ + DDQ (Aβ1-42 6 hrs, then DDQ 24 hrs) vs cells incubated with Aβ): reduced
GTPase-Drp1 activity [2, 5]: decreased levels
GTPase-Drp1 activity ([2]; DDQ + Aβ (DDQ 24 hrs, then Aβ1-42 6 hrs) vs cells incubated with Aβ): reduced
